Values joined by “and” are separate entries in the source; they are usually repeats but may differ in a detail not shown here. Identical values can stand only once.
Row | melting point | Structure (SMILES)
1 | 155 °C | COc1ccccc1-c1nnn[nH]1 [5-(2-methoxyphenyl)-1h-tetrazole]
2 | 153 °C | Cc1ccccc1-c1nnn[nH]1 [5-(2-methylphenyl)-1h-tetrazole]
3 | 201 °C | COc1cc(Cc2cnc(N)nc2N)cc(OC)c1OC [5-(3,4,5-Trimethoxybenzyl)pyrimidine-2,4-diamine]
4 | 145 °C | Cc1cccc(-c2nnn[nH]2)c1 [5-(3-methylphenyl)-1h-tetrazole]
5 | 237 °C | COc1ccc(-c2nnn[nH]2)cc1 [5-(4-methoxyphenyl)-1h-tetrazole]
6 | 119 °C | Nc1cc(Cl)ccc1[N+](=O)[O-] [5-Chlor-2-nitroanilin]
7 | 283 °C | Oc1ncc(F)c(O)n1 [5-Fluorouracil]
8 | 181 °C | O=C1NC(=O)c2cc([N+](=O)[O-])ccc21 [5-Nitro-1H-isoindole-1,3(2H)-dione]
9 | 145 °C | CC(=O)c1ccc(B(O)O)s1 [5-acetylthiophene-2-boronic acid]
10 | 127 °C | Cn1nc(-c2ccccc2)cc1N [5-amino-1-methyl-3-phenyl-1h-pyrazole]
11 | 79 °C | COc1cc(Br)cc(OC)c1OC [5-bromo-1,2,3-trimethoxybenzene]
12 | 154 °C | O=C(O)c1cc(Br)ccc1Cl [5-bromo-2-chlorobenzoic_acid]
13 | 110 °C | O=C(c1ccccc1)c1cc(Br)ccc1O [5-bromo-2-hydroxybenzophenone]
14 | 121 °C | N#Cc1cc(Br)ccc1I [5-bromo-2-iodobenzonitrile]
15 | 40 °C | O=C(O)CCCCBr [5-bromovaleric acid]
16 | 59 °C | Cc1cc(Cl)cc(C=O)c1O [5-chloro-2-hydroxy-3-methylbenzaldehyde]
17 | 126 °C | Nc1cc(Cl)ccc1[N+](=O)[O-] [5-chloro-2-nitroaniline]
18 | 71 °C | Clc1ccc2[nH]ccc2c1 [5-chloroindole]
19 | 151 °C | O=C(O)c1ccc(Cl)s1 [5-chlorothiophene-2-carboxylic acid]
20 | 164 °C | COc1cc(C=O)cc(Cl)c1O [5-chlorovanillin]
21 | 150 °C | O=c1[nH]c(=O)n([C@H]2C[C@H](O)[C@@H](CO)O2)cc1F [5-fluoro-2'-deoxyuridine]

Row | melting point | Structure (SMILES)
22 | 149 °C | Cc1ccc(F)cc1B(O)O [5-fluoro-2-methylbenzeneboronic acid]
23 | 180 °C | O=C(O)c1cc(F)ccc1O [5-fluorosalicylic acid]
24 | 160 °C | COc1ccc(C=O)cc1B(O)O [5-formyl-2-methoxybenzeneboronic acid]
25 | 196 °C | COc1cc(C(=O)O)cc(O)c1OC [5-hydroxy-3,4-dimethoxybenzoic acid]
26 | 158 °C | O=c1cc(-c2ccccc2)oc2cccc(O)c12 [5-hydroxyflavone]
27 | 34 °C | O=Cc1ccc(CO)o1 [5-hydroxymethyl-2-furaldehyde]
28 | 117 °C | COc1ccc2c(c1)no[n+]2[O-] [5-methoxybenzofuroxan]
29 | 35 °C | COc1cccc2c1C(=O)C2 [5-methoxybicyclo[4.2.0]octa-1,3,5-trien-7-one]
30 | -124 °C | C#CCCC(C)C [5-methyl-1-hexyne]
31 | -120 °C | CCC(C)CCC(C)O (centres undefined) [5-methyl-2-heptanol]
32 | 55 °C | Cc1ccc([N+](=O)[O-])c(O)c1 [5-methyl-2-nitrophenol]
33 | 129 °C | CC1=CC(c2c(C)cc(C)cc2C)N=N1 (centres undefined) [5-methyl-3-(2,4,6-trimethylphenyl)-1H-pyrazole]
34 | 34 °C | Cc1ccc2sccc2c1 [5-methylbenzo[b]thiophene]
35 | 164 °C | Cc1cc(C#N)cc(C#N)c1 [5-methylisophthalonitrile]
36 | 213 °C | Cc1cncc(C(=O)O)c1 [5-methylnicotinic acid]
37 | 219 °C | CC(O)C1(O)CCC2C3CCC4(C)CC(O)CCC4(C)C3CCC21C (centres undefined) [5-methylpregnane-3,17,20-triol]
38 | 171 °C | NNC(=O)c1ccc([N+](=O)[O-])o1 [5-nitro-2-furohydrazide]
39 | 141 °C | O=[N+]([O-])c1ccc2[nH]ccc2c1 [5-nitroindole]
40 | 232 °C | O=C(O)c1cc([N+](=O)[O-])ccc1O [5-nitrosalicylic acid]
41 | -50 °C | CCCCC(=O)CCCC [5-nonanone]
42 | 59 °C | O=C(O)CCCCc1ccccc1 [5-phenylvaleric acid]

Row | melting point | Structure (SMILES)
43 | 142 °C | CC(C)CCC[C@@H](C)[C@H]1CC[C@H]2[C@@H]3CC[C@H]4C[C@@H](O)CC[C@]4(C)[C@H]3CC[C@]12C [5alpha-cholestan-3beta-ol]
44 | 168 °C | Brc1ccc(-c2cccc(Br)n2)cn1 [6,6'-dibromo-2,3'-bipyridine]
45 | 56 °C | NCCCCCCO [6-Aminohexan-1-ol]
46 | 188 °C and 189 °C | Nc1ncc2ncn(COCCO)c2n1 [6-Deoxyacyclovir]
47 | 227 °C | O=C(Nc1ccc2cc(OC(=O)c3ccccc3)ccc2c1)c1ccccc1 [6-[(phenylcarbonyl)amino]naphthalen-2-yl benzoate]
48 | -21 °C | CC(=O)c1ccc2c(c1)CCCC2 [6-acetyl-1,2,3,4-tetrahydronaphthalene]
49 | 205 °C | NCCCCCC(=O)O [6-aminocaproic acid]
50 | 152 °C | Fc1nc(Cl)c2nc[nH]c2n1 [6-chloro-2-fluoropurine]
51 | 156 °C | OB(O)c1ccc(Cl)nc1 [6-chloropyridine-3-boronic acid]
52 | 35 °C | Clc1ccc2ncccc2c1 [6-chloroquinoline]
53 | 76 °C | Fc1ccc2cc[nH]c2c1 [6-fluoroindole]
54 | 155 °C | CC(C)CCCC(C)C1CCC2C3CC(O)C4=CC(=O)CCC4(C)C3CCC12C (centres undefined) [6-hydroxycholest-4-en-3-one]
55 | 92 °C | COc1ccc2cc[nH]c2c1 [6-methoxyindole]
56 | 129 °C | Cc1cccc(C(=O)O)n1 [6-methylpyridine-2-carboxylic acid]
57 | 246 °C | O=c1[nH]c2ccc([N+](=O)[O-])cc2o1 [6-nitro-2(3h)-benzoxazolone]
58 | 15 °C | CCCCCC(=O)CCCCC [6-undecanone]
59 | 243 °C | Cc1cc(=O)oc2c(O)c(O)ccc12 [7,8-dihydroxy-4-methylcomarin]
60 | 76 °C | O=C(CBr)c1ccc2c(c1)OCCCO2 [7-bromoacetyl-3,4-dihydro-1,5-benzodioxepin]
61 | 180 °C | [O-][n+]1ccc2ccc(Br)cc2c1 [7-bromoisoquinoline n-oxide]
62 | 283 °C | Cc1cc(O)n2ncnc2n1 [7-hydroxy-5-methyl[1,2,4]triazolo[1,5-a]pyrimidine]
63 | 206 °C | COc1ccc2c(C)cc(=O)[nH]c2c1 [7-methoxy-4-methyl-2(1h)-quinolinone]

Row | melting point | Structure (SMILES)
64 | 84 °C | Cc1cccc2cc[nH]c12 [7-methylindole]
65 | 42 °C | CC1(C)c2ccccc2Oc2ccccc21 [9,9-dimethylxanthene]
66 | 156 °C | OC1c2ccccc2-c2ccccc21 [9-fluorenol]
67 | 83 °C | O=C1c2ccccc2-c2ccccc21 [9-fluorenone]
68 | 101 °C | c1ccc2c(c1)Cc1ccccc1O2 [9H-Xanthene]
69 | 57 °C | CCCCCCCCCCC#CC#CCCCCCCCCC(=O)O [10,12-tricosadiynoic acid]
70 | 136 °C | CC(=O)OC1CCC2(C)C(CCC3C4=C(CCC32)C(C)(C#Cc2ccccc2)CC4)C1 (centres undefined) [10,17-dimethyl-17-(phenylethynyl)gon-13-en-3-yl acetate]
71 | 36 °C | OCCCCCCCCCCc1ccccc1 [10-Phenyldecan-1-ol]
72 | 138 °C | C[C@]12CCC(=O)CC1CCC1=C2CC[C@@H]2C(=O)CC[C@@H]12 (some centres undefined) [10-methylgon-8-ene-3,17-dione]
73 | 223 °C | C[C@]12CCC(=O)C=C1CC[C@@H]1[C@@H]2C(O)C[C@@]2(C)[C@H]1CC[C@]2(O)C(=O)CO (some centres undefined) [11,17,21-Trihydroxypregn-4-ene-3,20-dione]
74 | 72 °C | CCCCCCCCCCC(O)CCCCCCCCCC [11-heneicosanol]
75 | 75 °C | CCCCCCC(O)CCCCCCCCCCC(=O)O (centres undefined) [12-hydroxystearic acid]
76 | 148 °C | CC(=O)OC1CCC2(C)C(=CCC3C2CCC2(C)C3CCC2(O)C#Cc2ccccc2)C1 (centres undefined) [17-hydroxy-21-phenylpregn-5-en-20-yn-3-yl acetate]
77 | 138 °C | CC(=O)OC1CCC2(C)C(CCC3C2CCC2(C)C3CCC2(O)CCc2ccccc2)C1 (centres undefined) [17-hydroxy-21-phenylpregnan-3-yl acetate]
78 | 141 °C | CC1=CCC2C3CCC4CC(=O)CCC4(C)C3CCC12C (centres undefined) [17-methylandrost-16-en-3-one]
79 | 144 °C | C#C[C@]1(O)CC[C@H]2[C@@H]3CCc4cc(O)ccc4[C@H]3CC[C@@]21C [17alpha-ethynylestradiol]
80 | 103 °C | CC12CCCCC1CCC1C2CCC2(C)C1CCC2(O)C#Cc1ccccc1 (centres undefined) [21-phenylpregn-20-yn-17-ol]
81 | 122 °C | C[C@]12CCC(O)CC1CC[C@@H]1[C@@H]2CC[C@@]2(C)[C@H]1CC[C@]2(O)C#Cc1ccccc1 (some centres undefined) [21-phenylpregn-20-yne-3,17-diol]

Row | Structure (SMILES) | melting point
82 | O=C(O)c1cc(Cl)c([N+](=O)[O-])cc1[N+](=O)[O-] [5-chloro-2,4-dinitrobenzoic acid] | 181 °C
83 | CNc1ccc(Cl)cc1C(=O)c1ccccc1 [5-chloro-2-methylaminobenzophenone] | 96 °C
84 | Nc1c(Cl)cc([N+](=O)[O-])cc1[N+](=O)[O-] [6-chloro-2,4-dinitroaniline] | 157 °C
85 | Cc1c2ccccc2cc2ccccc12 [9-methylanthracene] | 78 °C and 80 °C
86 | CC12CCC(=O)CC1CCC1C2CCC2(C)C(=O)CCC12O (centres undefined) [14-hydroxyandrostane-3,17-dione] | 199 °C
87 | CC12CCC3C(CCC4CC(=O)CCC43C)C1CCC2O (centres undefined) [17-hydroxyandrostan-3-one] | 121 °C
88 | O=C4\C=C3/[C@]([C@H]2CC[C@]1([C@@H](CC[C@@]1(O)C)[C@@H]2CC3)C)(C)CC4 [17-methyltestosterone] | 164 °C
89 | CCCOC1CCC2C3CCC4=CC(O)CCC4(C)C3CCC12C (centres undefined) [17-propoxyandrost-4-en-3-ol] | 125 °C

Source: the Bradley open melting point set (2014)
